# Data reported in patent US9518018B2, “3-alkoxy, thioalkyl and amino-4-amino-6-(substituted)picolinates and their use as herbicides” (Dow AgroSciences LLC, priority 2011, dated 2016).
# What was measured:
# Assay in all cases: In-water applied herbicidal activity in transplanted paddy rice
# Format in all cases: in vivo
# [1] = tested on: CYPDI = Cyperus difformis L. (small-flower flatsedge)
# Description: (§1) Weed seeds or nutlets of the desired test plant species were planted in puddled soil (mud) prepared by mixing a non-sterilized mineral soil (28 percent silt, 18 percent clay, and 54 percent sand, with a pH of about 7.3 to 7.8 and an organic matter content of about 1.0 percent) and water at a ratio of 100 kilograms (kg) of soil to 19 liters (L) of water. The prepared mud was dispensed in 250 mL aliquots into 480 mL non-perforated plastic pots with a surface area of 86.59 cm^2 leaving a headspace of 2.5 to 3 cm in each pot. Rice seeds were planted in Sun Gro MetroMix 306 planting mixture, which typically has a pH of 6.0 to 6.8 and an organic matter content of about 30 percent, in plastic plug trays. Seedlings at the second or third leaf stage of growth were transplanted into 650 mL of mud contained in 960 mL non-perforated plastic pots with a surface area of 86.59 cm^2 four days prior to herbicide application. The paddy was created by filling the 2.5 to 3 cm headspace of the pots with water. When required to ensure good germination and healthy plants, a fungicide treatment and/or other chemical or physical treatment was applied. The plants were grown for 4-14 d in a greenhouse with an approximate 14-h photoperiod which was maintained at about 29° C. during the day and 26° C. during the night. Nutrients were added as Osmocote (17:6:10, Nitrogen:Phosphorus:Potassium (N:P:K)+minor nutrients) at 2 grams (g) per cup. Water was added on a regular basis to maintain the paddy flood, and supplemental lighting was provided with overhead metal halide 1000-Watt lamps as necessary. The plants were employed for testing when they reached the second or third true leaf stage. Treatments consisted of compounds 45, 34, and 66. For technical grade compounds, a weighed amount, determined by the highest rate to be tested, was placed in an individual 120 mL glass vial and was dissolved in 20 mL of acetone to obtain concentrated stock solutions. […] The concentrated stock solutions obtained were diluted with 20 mL of an aqueous mixture containing 2.5% Agri-dex crop oil concentrate (v/v). Applications were made by injecting an appropriate amount of the stock solution into the aqueous layer of the paddy. Control plants were treated in the same manner with the solvent blank. All treated plant material received the same concentration of acetone and crop oil concentrate. The treated plants and control plants were placed in a greenhouse as described above and water was added as needed to maintain a paddy flood. After approximately 3 weeks, the condition of the test plants, compared with that of the untreated plants, was determined visually and scored on a scale of 0 to 100 percent where 0 corresponds to no injury and 100 corresponds to complete kill. By applying the well-accepted probit analysis as described by J. Berkson in Journal of the […], 48, 565 (1953) and by D. Finney in “Probit Analysis” Cambridge University Press (1952) or by plotting the mean data and fitting a logarithmic curve to the portion of the data where there was a dose response using Microsoft Excel®, the above data can be used to calculate GR50 and GR90 values, which are defined as growth reduction factors that correspond to the effective dose of herbicide required to kill or control 50 percent or 90 percent, respectively, of a target plant.
# [2] = tested on: SCPJU = Scirpus juncoides ROXB. (Japanese bulrush)
# Description: as §1
# [3] = tested on: ORYSA = Oryza sativa ‘M202’ (rice)
# Description: as §1
# [4] = tested on: MOOVA = Monochoria vaginalis (BURM.f.) C.PRESL ex KUNTH (monochoria)
# Description: as §1
# [5] = tested on: ECHCG = Echinochloa crus-galli (L.) P.BEAUV. (barnyardgrass)
# Description: as §1
# [6] = tested on: ORYSA = Oryza sativa ‘Wells’ (rice)
# Description: as §1
# [7] = Table 7, dose to kill or control 50 percent, 21 days after application
# [8] = Table 7, dose to kill or control 90 percent, 21 days after application
compound,measurement,setting,value
"COc1c(C(=O)O)nc(-c2ccc(Cl)c(OC)c2F)c(F)c1N [Compound 45, 4-amino-6-(4-chloro-2-fluoro-3-methoxyphenyl)-5-fluoro-3-methoxypicolinic acid]",Mean Visual Injury (%)-21 Days After Application CYPDI,"[1]; Table 7, 8.75 g ae/ha",67%
same,Mean Visual Injury (%)-21 Days After Application CYPDI,"[1]; Table 7, 17.5 g ae/ha",100%
same,Mean Visual Injury (%)-21 Days After Application CYPDI,"[1]; Table 7, 35 g ae/ha",100%
same,Mean Visual Injury (%)-21 Days After Application CYPDI,"[1]; Table 7, 70 g ae/ha",100%
same,Mean Visual Injury (%)-21 Days After Application CYPDI,"[1]; Table 7, 140 g ae/ha",100%
same,GR50 CYPDI,[1]; [7],<8.75 g ae/ha
same,GR90 CYPDI,[1]; [8],14.2 g ae/ha
same,Mean Visual Injury (%)-21 Days After Application SCPJU,"[2]; Table 7, 8.75 g ae/ha",10%
same,Mean Visual Injury (%)-21 Days After Application SCPJU,"[2]; Table 7, 17.5 g ae/ha",63%
same,Mean Visual Injury (%)-21 Days After Application SCPJU,"[2]; Table 7, 35 g ae/ha",93%
same,Mean Visual Injury (%)-21 Days After Application SCPJU,"[2]; Table 7, 70 g ae/ha",100%
same,Mean Visual Injury (%)-21 Days After Application SCPJU,"[2]; Table 7, 140 g ae/ha",100%
same,GR50 SCPJU,[2]; [7],16.8 g ae/ha
same,GR90 SCPJU,[2]; [8],42.4 g ae/ha
same,Mean Visual Injury (%)-21 Days After Application ORYSA ‘M202’,"[3]; Table 7, 8.75 g ae/ha",0%
same,Mean Visual Injury (%)-21 Days After Application ORYSA ‘M202’,"[3]; Table 7, 17.5 g ae/ha",0%
same,Mean Visual Injury (%)-21 Days After Application ORYSA ‘M202’,"[3]; Table 7, 35 g ae/ha",0%
same,Mean Visual Injury (%)-21 Days After Application ORYSA ‘M202’,"[3]; Table 7, 70 g ae/ha",0%
same,Mean Visual Injury (%)-21 Days After Application ORYSA ‘M202’,"[3]; Table 7, 140 g ae/ha",12%
same,GR50 ORYSA ‘M202’,[3]; [7],>140 g ae/ha
same,GR90 ORYSA ‘M202’,[3]; [8],>140 g ae/ha
same,Mean Visual Injury (%)-21 Days After Application MOOVA,"[4]; Table 7, 8.75 g ae/ha",100%
same,Mean Visual Injury (%)-21 Days After Application MOOVA,"[4]; Table 7, 17.5 g ae/ha",100%
same,Mean Visual Injury (%)-21 Days After Application MOOVA,"[4]; Table 7, 35 g ae/ha",100%
same,Mean Visual Injury (%)-21 Days After Application MOOVA,"[4]; Table 7, 70 g ae/ha",100%
same,Mean Visual Injury (%)-21 Days After Application MOOVA,"[4]; Table 7, 140 g ae/ha",100%
same,GR50 MOOVA,[4]; [7],<8.75 g ae/ha
same,GR90 MOOVA,[4]; [8],<8.75 g ae/ha
same,Mean Visual Injury (%)-21 Days After Application ECHCG,"[5]; Table 7, 8.75 g ae/ha",0%
same,Mean Visual Injury (%)-21 Days After Application ECHCG,"[5]; Table 7, 17.5 g ae/ha",0%
same,Mean Visual Injury (%)-21 Days After Application ECHCG,"[5]; Table 7, 35 g ae/ha",30%
same,Mean Visual Injury (%)-21 Days After Application ECHCG,"[5]; Table 7, 70 g ae/ha",100%
same,Mean Visual Injury (%)-21 Days After Application ECHCG,"[5]; Table 7, 140 g ae/ha",100%
same,GR50 ECHCG,[5]; [7],38.4 g ae/ha
same,GR90 ECHCG,[5]; [8],66.8 g ae/ha
same,Mean Visual Injury (%)-21 Days After Application ORYSA ‘Wells’,"[6]; Table 7, 8.75 g ae/ha",0%
same,Mean Visual Injury (%)-21 Days After Application ORYSA ‘Wells’,"[6]; Table 7, 17.5 g ae/ha",0%
same,Mean Visual Injury (%)-21 Days After Application ORYSA ‘Wells’,"[6]; Table 7, 35 g ae/ha",0%
same,Mean Visual Injury (%)-21 Days After Application ORYSA ‘Wells’,"[6]; Table 7, 70 g ae/ha",0%
same,Mean Visual Injury (%)-21 Days After Application ORYSA ‘Wells’,"[6]; Table 7, 140 g ae/ha",7%
same,GR50 ORYSA ‘Wells’,[6]; [7],>140 g ae/ha
same,GR90 ORYSA ‘Wells’,[6]; [8],>140 g ae/ha
